According to paper PMC12051620, “Molecular basis underlying the specificity of an antagonist AA92593 for mammalian melanopsins” (The Journal of Biological Chemistry, 2025):

Tests used:
Xenopus Opn4x WT = biological target: T1, Xenopus Opn4x WT (Xenopus laevis, UniProt O57422); assay: GsX GloSensor assay with Gsα/q11; assay type: cell-based; conditions: 16.7 μM AA92593, COS-1 cells
T1 construct: expressed in transfected cells; host or cells: COS-1
From the text: (§1) The GsX GloSensor assay using Gsα/q11 of Xenopus Opn4x and chicken Opn4-1 detected the light-dependent Gq activation in both non-mammalian-type melanopsins (Fig. 6, A and D). […] The ineffectiveness of AA92593 is consistent with the fact that Phe-94^2.61, Ser-188^ECL2, and Ser-269^6.52 are not conserved among non-mammalian-type melanopsins (Figs. 2A, S2 and S3). If these three residues are important for the antagonistic effect against melanopsins, the introduction of Phe-94^2.61/Ser-188^ECL2/Ser-269^6.52 into the non-mammalian-type melanopsins would make them susceptible to AA92593. As expected, the substitutions of C94^2.61F/T188S^ECL2/A269^6.52S in Xenopus Opn4x and chicken Opn4-1 increased their sensitivity to AA92593 by ∼49% and ∼22%, respectively (Fig. 6, B and E, G–I). Based on the loss-of-function properties of F94^2.61C/S188^ECL2T/S269^6.52A mutants of mammalian-type melanopsins and the gain-of-function properties of C94^2.61F/T188^ECL2S/A269^6.52S mutants of non-mammalian-type melanopsins (Figs. 2G, 3E, 6, G and H), we propose that Phe-94^2.61, Ser-188^ECL2, and Ser-269^6.52 are required for specific interactions with AA92593 as an effective antagonist. […]

chicken Opn4-1 WT = assay: GsX GloSensor assay with Gsα/q11; assay type: cell-based; conditions: 16.7 μM AA92593, COS-1 cells
From the text: as §1

T1 sequence (O57422 1-334 limits assumed): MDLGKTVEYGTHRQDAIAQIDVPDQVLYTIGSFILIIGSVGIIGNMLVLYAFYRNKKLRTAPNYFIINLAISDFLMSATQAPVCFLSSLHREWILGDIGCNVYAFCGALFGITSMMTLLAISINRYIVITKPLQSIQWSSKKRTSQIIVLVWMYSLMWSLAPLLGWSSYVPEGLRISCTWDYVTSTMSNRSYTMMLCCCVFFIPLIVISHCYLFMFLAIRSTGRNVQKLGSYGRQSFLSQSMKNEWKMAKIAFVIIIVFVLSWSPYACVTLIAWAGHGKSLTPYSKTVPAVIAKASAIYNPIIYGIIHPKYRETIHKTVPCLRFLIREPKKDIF

COc1ccc(S(=O)(=O)N2CCCCC2)cc1C [AA92593]
inhibition of the light-dependent responses (Xenopus Opn4x WT): did not effectively inhibit
inhibition of the light-dependent responses (chicken Opn4-1 WT): did not effectively inhibit
